Data published in patent US6951881B2, “(1-substituted-indol-3-yl) alkylidenehydrazinecarboximidamide derivatives as 5-hydroxytryptamine-6 ligands” (Wyeth, priority 2002, dated 2005).
Where a name gives a salt, the structure may show the parent alone.

Target: T1, human cloned 5-HT6 receptors (Homo sapiens, UniProt P50406)
T1 construct: expressed in transfected cells; host or cells: HeLa cells
Assay type: binding
Conditions: for inhibition at 0.1 µM: test compound dose 100 nM, read-out: % Inhibition; for inhibition at 0.1 µM / inhibition at 1 µM / % Inhibition: displacement of [3H]-LSD; for inhibition at 1 µM / % Inhibition: test compound dose 1000 nM; for Ki: [3H]-LSD 3.0 nM, Hela cell membranes, read-out: 5-HT6 Binding Ki
Method: This operation is repeated.
The reaction is allowed to proceed in the dark for 120 min at room temperature, at which time, the bound ligand-receptor complex is filtered off on a 96 well unifilter with a Packard Filtermate® 196 Harvester. The bound complex caught on the filter disk is allowed to air dry and the radioactivity is measured in a Packard TopCount® equipped with six photomultiplier detectors, after the addition of 40.0 μl Microscint®-20 scintillant to each shallow well. The unifilter plate is heat-sealed and counted in a PackardTopCount® with a tritium efficiency of 31.0%.
Specific binding to the 5-HT6 receptor is defined as the total radioactivity bound less the amount bound in the presence of 10.0 μM unlabeled methiothepin. Binding in the presence of varying concentrations of test compound is expressed as a percentage of specific binding in the absence of test compound. The results are plotted as logit % bound versus log concentration of test compound. Nonlinear regression analysis of data points with a computer assisted program Prism® yields both the IC50 and the Ki values of test compounds with 95% confidence limits.
The amount of displacement by the test compound is given in percent (%) inhibition and is derived from the following equation: [formula] where B0 is the amount of CPM bound in the presence of the testing agent. NSB represents the CPM bound in the presence of a saturating concentration of a displacer and TB represents the total amount of CPM bound at zero (0) concentration of test compound.
Alternatively, a linear regression line of decline of data points is plotted, from which the IC50 value can be read off and the Ki value determined by solving the following equation: [formula] where L is the concentration of the radioactive ligand used and KD is the dissociation constant of the ligand for the receptor, both expressed in nM.

T1 sequence (P50406 whole entry): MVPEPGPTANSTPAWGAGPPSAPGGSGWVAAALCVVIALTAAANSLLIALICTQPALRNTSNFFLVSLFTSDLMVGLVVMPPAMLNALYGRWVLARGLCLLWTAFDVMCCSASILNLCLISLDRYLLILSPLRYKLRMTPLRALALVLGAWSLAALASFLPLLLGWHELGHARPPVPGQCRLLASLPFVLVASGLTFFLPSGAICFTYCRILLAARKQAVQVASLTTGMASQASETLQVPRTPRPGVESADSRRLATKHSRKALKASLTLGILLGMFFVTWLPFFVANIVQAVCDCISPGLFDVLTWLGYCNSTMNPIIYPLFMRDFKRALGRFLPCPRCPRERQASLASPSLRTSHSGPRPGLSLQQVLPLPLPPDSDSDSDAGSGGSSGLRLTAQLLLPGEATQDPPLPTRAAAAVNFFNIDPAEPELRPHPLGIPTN

Row | SMILES | inhibition at 1 µM [%] | also measured
1 | N=C(N)NN=C1CC(c2ccccc2)Cc2[nH]c3ccc(Br)cc3c21 (stereo not shown) [Example 170, 2-(6-bromo-2-phenyl-1,2,3,9-tetrahydro-4H-carbazol-4-ylidene)hydrazinecarboximidamide] | – | inhibition at 0.1 µM: 24.4%
2 | Clc1ccc(-c2[nH]c3ccccc3c2C=NNC2=NCCCN2)cc1 [Example 45, N-[2-(4-chlorophenyl)-1H-indol-3-ylmethylene]-N′-(1,4,5,6-tetrahydropyrimidin-2-yl)hydrazine] | 68.5 | –
3 | Cc1ccc2[nH]c3c(c2c1)C(=NNC(=N)N)CCC3 [Example 165, 2-(6-methyl-1,2,3,9-tetrahydro-4H-carbazol-4-ylidene)hydrazinecarboximidamide] | – | inhibition at 0.1 µM: 57.2%
4 | CC(C)=CC(=NN(C)C1=NCCN1)c1c(-c2ccccc2)[nH]c2ccccc12 [Example 68, N-(4,5-dihydro-1H-imidazol-2-yl)-N-methyl-N′-[3-methyl-1-(2-phenyl-1H-indol-3-yl)-but-2-enylidene]hydrazine] | 24.8 | –
5 | CC(=NNC(=N)N)c1cn(C)c2ccc(NS(=O)(=O)c3sc4ccc(Cl)cc4c3C)cc12 [Example 16] | 98.7 | Ki: 7 nM
6 | CN(N=C(c1ccc(Cl)cc1)c1c(-c2ccc(Cl)cc2)[nH]c2ccccc12)C1=NCCN1 [Example 67, N′-{(4-chlorophenyl)-[2-(4-chlorophenyl)-1H-indol-3-yl]-methylene}-N-(4,5,-dihydro-1H-imidazol-2-yl)-N-methylhydrazine] | – | % Inhibition: 35.2%
7 | N=C(N)NN=C(c1c(-c2ccccc2)[nH]c2ccccc12)C1CCCCC1 [Example 54, 2-[cyclohexyl-(2-phenyl-1H-indol-3-yl)-methylene]hydrazinecarboximidamide] | 27 | –
8 | CC(=NNC(=N)N)c1cn(C)c2ccc(NS(=O)(=O)c3ccc(Cl)cc3)cc12 [Example 29] | 98.4 | Ki: 4 nM
9 | CN(N=C(CCc1ccccc1)c1c(-c2ccc(Cl)cc2)[nH]c2ccccc12)C1=NCCN1 [Example 70, N′-{1-[2-(4-chloro-phenyl)-1H-indol-3-yl]-3-phenyl-propylidene}-N-(4,5-dihydro-1H-imidazol-2-yl)-N-methylhydrazine] | 33.9 | –
10 | C/C(=N\NC(=N)N)c1cn(C)c2ccc(NS(=O)(=O)c3ccccc3)cc12 [Example 8, (Z)-2-{-1-[1-methyl-5-[(phenylsulfonyl)amino]-1H-indol-3-yl]ethylidene}hydrazinecarboximidamide Hydrochloride] | – | Ki: 2 nM
11 | Clc1ccc(-c2[nH]c3ccccc3c2C=NNC2=NCCN2)cc1 [Example 47, N-[2-(4-chlorophenyl)-1H-indol-3-ylmethylene]-N′-(4,5-dihydro-1H-imidazol-2-yl)hydrazine] | – | Ki: 20.2 nM
12 | CC1(C)CC(=NNC(=N)N)c2c([nH]c3ccc(F)cc23)C1 [Example 173, 2-(6-fluoro-2,2-dimethyl-1,2,3,9-tetrahydro-4H-carbazol-4-ylidene)hydrazinecarboximidamide] | – | inhibition at 0.1 µM: 26.7%
13 | CCn1c(-c2ccc(Cl)cc2)c(C=NN(C)C2=NCCN2)c2ccccc21 [Example 104, N-{[2-(4-chloro-phenyl)-1-ethyl-1H-indol-3-yl]-methylene}-N′-(4,5-dihydro-1H-imidazol-2-yl)-N-methylhydrazine] | – | % Inhibition: 100.0%
14 | CN(N=C(C=Cc1ccccc1)c1c(-c2ccc(Cl)cc2)[nH]c2ccccc12)C1=NCCN1 [Example 72, N′-{1-[2-(4-chloro-phenyl)-1H-indol-3-yl]-3-phenyl-allylidene}-N-(4,5-dihydro-1H-imidazol-2-yl)-N-methylhydrazine] | 40.9 | –
15 | CC(=NNC(=N)N)c1c(-c2ccc(F)c(F)c2)[nH]c2ccccc12 [Example 75, 2-{1-[2-(3,4-difluoro-phenyl)-1H-indol-3-yl]-ethylidene}hydrazinecarboximidamide] | 73.2 | –
16 | CN(N=Cc1c(-c2ccc(Cl)cc2)n(CCC#N)c2ccccc12)C1=NCCN1 [Example 109, N-{[2-(4-chloro-phenyl)-1-(2-cyano-ethyl)-1H-indol-3-yl]-methylene}-N′-(4,5-dihydro-1H-imidazol-2-yl)-N-methylhydrazine] | – | % Inhibition: 99.1%
17 | CN(N=Cc1c(-c2ccc(Cl)cc2)n(Cc2ccccc2Cl)c2ccccc12)C1=NCCN1 [Example 97, N-{[1-(2-chloro-benzyl)-2-(4-chloro-phenyl)-1H-indol-3-yl]-methylene}-N′-(4,5-dihydro-1H-imidazol-2-yl)-N-methylhydrazine] | – | % Inhibition: 0.4%
18 | N=C(N)NN=Cc1c(-c2ccc(F)c(Cl)c2)[nH]c2ccccc12 [Example 48, 2-[2-(3-chloro-4-fluoro-phenyl)-1H-indol-3-ylmethylene]hydrazinecarboximidamide] | 88.6 | –
19 | N=C(N)NN=C(c1c(-c2ccc(F)c(Cl)c2)[nH]c2ccccc12)C1CCCCC1 [Example 56, 2-{[2-(3-chloro-4-fluoro-phenyl)-1H-indol-3-yl]-cyclohexyl-methylene}hydrazinecarboximidamide] | 33.9 | –
20 | C/C(=N\NC(=N)N)c1c(-c2ccccc2)[nH]c2ccccc12 [Example 43, 2-[1-(2-Phenyl-1H-indol-3-yl)ethylidene]hydrazine-carboximidamide] | 93.3 | –
21 | CN(N=Cc1c(-c2ccc(F)c(Cl)c2)[nH]c2ccccc12)C1=NCCN1 [Example 49, N′-[2-(3-chloro-4-fluoro-phenyl)-1H-indol-3-ylmethylene]-N-(4,5-dihydro-1H-imidazol-2-yl)-N-methylhydrazine] | 93.8 | –
22 | CCCCCNC(=N)NN=C1CCCc2[nH]c3ccc(Cl)cc3c21 [Example 181, 2-(6-chloro-1,2,3,9-tetrahydro-4H-carbazol-4-ylidene)-N-pentylhydrazinecarboximidamide] | – | inhibition at 0.1 µM: 47%
23 | COc1ccc(S(=O)(=O)Nc2ccc3c(c2)c(C(C)=NNC(=N)N)cn3C)cc1OC [Example 23] | 99.4 | Ki: 3 nM

The next lines start with results.

Row | inhibition at 1 µM [%] | SMILES | also measured
24 | 19.7 | N=C(N)NN=Cc1c(-c2ccc(Cl)cc2)n(Cc2ccccc2)c2ccccc12 [Example 94, 2-{[1-benzyl-2-(4-chloro-phenyl)-1H-indol-3-yl]-methylene}hydrazinecarboximidamide] | –
25 | 31.5 | CC(=NNC(=N)N)c1c(-c2ccc(Cl)cc2)n(Cc2csc(C)n2)c2ccccc12 [Example 100, 2-(1-{2-(4-chlorophenyl)-1-[(2-methyl-1,3-thiazol-4-yl)methyl]-1H-indol-3-yl}ethylidene)-1hydrazinecarboximidamide] | –
26 | 56.2 | CN=C(NCc1ccccc1)NN=Cc1c(-c2ccc(Cl)cc2)[nH]c2ccccc12 [Example 118, 2-{[2-(4-chlorophenyl)-1H-indol-3-yl]methylidene}-N-benzyl-N′-methyl-1hydrazinecarboximidamide] | –
27 | 31.3 | Cn1c(-c2ccccc2)c(C(=NNC(=N)N)C2CCCCC2)c2ccccc21 [Example 79, 2-[cyclohexyl-(1-methyl-2-phenyl-1H-indol-3-yl)-methylene]hydrazinecarboximidamide] | –
28 | 31 | Cn1c(-c2ccccc2)c(C(Cc2ccccc2)=NNC(=N)N)c2ccccc21 [Example 83, 2-[1-(1-methyl-2-phenyl-1H-indol-3-yl)-2-phenyl-ethylidene]hydrazinecarboximidamide] | –
